# Measured values from PubChem BioAssay AID248 (DTP/NCI, 2004).
# Several values for one entry are separate records, joined by “and”; a condition that tells them apart may be missing. Identical values can stand only once. Toxic doses and inconclusive results are not listed.
# Test system: L1210 leukemia ip in BDF1 mice, survival T/C
# Assay: NCI In Vivo Anticancer Drug Screen. Data for tumor model L1210 Leukemia (intraperitoneal) in B6D2F1 (BDF1) mice
# Details: endpoint: mean survival time, higher = longer survival
# Method in brief: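 Tumor was transplanted into mice, which were then dosed with test compound or vehicle alone. Survival was recorded for each group, and the treated figure was expressed relative to the control figure.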
# [1] = dose: 75.0 mg/kg/injection, schedule: Q01DX001 (ip), vehicle: saline
# [2] = dose: 100.0 mg/kg/injection, schedule: Q01DX009 (ip), vehicle: Klucel (hydroxypropylcellulose) (HPC)
# [3] = dose: 200.0 mg/kg/injection, schedule: Q01DX009 (ip), vehicle: Klucel (hydroxypropylcellulose) (HPC)
structure (smiles),measurement,setting,value
O=C(Nc1ccc(C2=NCCN2)cc1)c1ccc(C(=O)Nc2ccc(C3=NCCN3)cc2)c(NC(=O)c2ccc(C(=O)Nc3cc(C(=O)Nc4ccc(C5=NCCN5)cc4)ccc3C(=O)Nc3ccc(C4=NCCN4)cc3)cc2)c1,T/C,"dose: 2.5 mg/kg/injection, schedule: Q01DX Z (ip), vehicle: methylcellulose (MC)",120 % of control
same,T/C,"dose: 3.1 mg/kg/injection, schedule: Q01DX Z (ip), vehicle: carboxymethylcellulose (CMC)",104 % of control
same,T/C,"dose: 6.2 mg/kg/injection, schedule: Q01DX Z (ip), vehicle: carboxymethylcellulose (CMC)",107 % of control
same,T/C,"dose: 6.25 mg/kg/injection, schedule: Q#A X Z (ip), vehicle: carboxymethylcellulose (CMC)",108 % of control
same,T/C,"dose: 10.0 mg/kg/injection, schedule: Q01DX Z (ip), vehicle: methylcellulose (MC)",157 % of control
same,T/C,"dose: 12.5 mg/kg/injection, schedule: Q01DX Z (ip), vehicle: carboxymethylcellulose (CMC)",119 % of control
same,T/C,"dose: 12.5 mg/kg/injection, schedule: Q01DX Z (sc), vehicle: carboxymethylcellulose (CMC)",98 % of control
same,T/C,"dose: 12.5 mg/kg/injection, schedule: Q#A X Z (ip), vehicle: carboxymethylcellulose (CMC)",192 % of control
same,T/C,"dose: 22.0 mg/kg/injection, schedule: Q01DX015 (ip), vehicle: carboxymethylcellulose (CMC)",116 % of control
same,T/C,"dose: 25.0 mg/kg/injection, schedule: Q01DX004 (im), vehicle: olive oil, sesame oil, peanut oil",97 % of control
same,T/C,"dose: 25.0 mg/kg/injection, schedule: Q01DX Z (ip), vehicle: carboxymethylcellulose (CMC)",175 % of control
same,T/C,"dose: 25.0 mg/kg/injection, schedule: Q01DX Z (sc), vehicle: carboxymethylcellulose (CMC)",122 % of control
same,T/C,"dose: 25.0 mg/kg/injection, schedule: Q#A X Z (ip), vehicle: carboxymethylcellulose (CMC)",289 % of control
same,T/C,"dose: 33.0 mg/kg/injection, schedule: Q01DX015 (ip), vehicle: carboxymethylcellulose (CMC)",106 % of control
same,T/C,"dose: 50.0 mg/kg/injection, schedule: Q01DX004 (im), vehicle: olive oil, sesame oil, peanut oil",95 % of control
same,T/C,"dose: 50.0 mg/kg/injection, schedule: Q01DX015 (ip), vehicle: carboxymethylcellulose (CMC)",110 % of control
same,T/C,"dose: 50.0 mg/kg/injection, schedule: Q01DX Z (ip), vehicle: carboxymethylcellulose (CMC)",302 % of control
same,T/C,"dose: 50.0 mg/kg/injection, schedule: Q01DX Z (oral), vehicle: carboxymethylcellulose (CMC)",95 % of control
same,T/C,"dose: 50.0 mg/kg/injection, schedule: Q01DX Z (sc), vehicle: carboxymethylcellulose (CMC)",201 % of control
same,T/C,"dose: 50.0 mg/kg/injection, schedule: Q#A X Z (ip), vehicle: carboxymethylcellulose (CMC)",194 % of control
same,T/C,"dose: 60.0 mg/kg/injection, schedule: Q01DX Z (ip), vehicle: methylcellulose (MC)",158 % of control and 359 % of control
same,T/C,"dose: 62.5 mg/kg/injection, schedule: Q## X010 (oral), vehicle: saline",98 % of control
same,T/C,"dose: 75.0 mg/kg/injection, schedule: Q03DX Z (ip), vehicle: carboxymethylcellulose (CMC)",206 % of control
same,T/C,"dose: 100.0 mg/kg/injection, schedule: Q01DX004 (im), vehicle: olive oil, sesame oil, peanut oil",95 % of control
same,T/C,"dose: 100.0 mg/kg/injection, schedule: Q01DX Z (ip), vehicle: carboxymethylcellulose (CMC)",195 % of control
same,T/C,"dose: 100.0 mg/kg/injection, schedule: Q01DX Z (oral), vehicle: carboxymethylcellulose (CMC)",93 % of control
same,T/C,"dose: 100.0 mg/kg/injection, schedule: Q01DX Z (sc), vehicle: carboxymethylcellulose (CMC)",208 % of control
same,T/C,"dose: 112.5 mg/kg/injection, schedule: Q01DX015 (ip), vehicle: carboxymethylcellulose (CMC)",169 % of control
same,T/C,"dose: 120.0 mg/kg/injection, schedule: Q01DX Z (ip), vehicle: methylcellulose (MC)",314 % of control
same,T/C,"dose: 150.0 mg/kg/injection, schedule: Q03DX Z (ip), vehicle: carboxymethylcellulose (CMC)",284 % of control
same,T/C,"dose: 175.0 mg/kg/injection, schedule: Q07DX Z (ip), vehicle: carboxymethylcellulose (CMC)",293 % of control
same,T/C,"dose: 192.0 mg/kg/injection, schedule: Q01DX001 (ip), vehicle: carboxymethylcellulose (CMC)",97 % of control
same,T/C,"dose: 192.0 mg/kg/injection, schedule: Q01DX001 (ip), vehicle: other",100 % of control
same,T/C,"dose: 200.0 mg/kg/injection, schedule: Q01DX004 (im), vehicle: olive oil, sesame oil, peanut oil",98 % of control
same,T/C,"dose: 200.0 mg/kg/injection, schedule: Q01DX Z (oral), vehicle: carboxymethylcellulose (CMC)",97 % of control
same,T/C,"dose: 200.0 mg/kg/injection, schedule: Q01DX Z (sc), vehicle: carboxymethylcellulose (CMC)",227 % of control
same,T/C,"dose: 240.0 mg/kg/injection, schedule: Q01DX Z (ip), vehicle: methylcellulose (MC)",210 % of control
same,T/C,"dose: 250.0 mg/kg/injection, schedule: Q## X010 (oral), vehicle: saline",101 % of control
same,T/C,"dose: 281.0 mg/kg/injection, schedule: Q01DX001 (ip), vehicle: carboxymethylcellulose (CMC)",97 % of control
same,T/C,"dose: 281.0 mg/kg/injection, schedule: Q01DX001 (ip), vehicle: other",103 % of control
same,T/C,"dose: 300.0 mg/kg/injection, schedule: Q03DX Z (ip), vehicle: carboxymethylcellulose (CMC)",190 % of control
same,T/C,"dose: 350.0 mg/kg/injection, schedule: Q07DX Z (ip), vehicle: carboxymethylcellulose (CMC)",278 % of control
same,T/C,"dose: 400.0 mg/kg/injection, schedule: Q01DX Z (oral), vehicle: carboxymethylcellulose (CMC)",104 % of control
same,T/C,"dose: 422.0 mg/kg/injection, schedule: Q01DX001 (ip), vehicle: carboxymethylcellulose (CMC)",95 % of control
same,T/C,"dose: 422.0 mg/kg/injection, schedule: Q01DX001 (ip), vehicle: other",106 % of control
same,T/C,"dose: 500.0 mg/kg/injection, schedule: Q## X010 (oral), vehicle: saline",104 % of control
same,T/C,"dose: 640.0 mg/kg/injection, schedule: Q01DX001 (ip), vehicle: carboxymethylcellulose (CMC)",104 % of control
same,T/C,"dose: 640.0 mg/kg/injection, schedule: Q01DX001 (ip), vehicle: other",104 % of control
same,T/C,"dose: 700.0 mg/kg/injection, schedule: Q07DX Z (ip), vehicle: carboxymethylcellulose (CMC)",185 % of control
same,T/C,"dose: 800.0 mg/kg/injection, schedule: Q01DX Z (oral), vehicle: carboxymethylcellulose (CMC)",89 % of control
same,T/C,"dose: 960.0 mg/kg/injection, schedule: Q01DX001 (ip), vehicle: carboxymethylcellulose (CMC)",106 % of control and 120 % of control
same,T/C,"dose: 1440.0 mg/kg/injection, schedule: Q01DX001 (ip), vehicle: carboxymethylcellulose (CMC)",116 % of control
same,T/C,"dose: 1440.0 mg/kg/injection, schedule: Q01DX001 (ip), vehicle: other",120 % of control
same,T/C,"dose: 2160.0 mg/kg/injection, schedule: Q01DX001 (ip), vehicle: carboxymethylcellulose (CMC)",121 % of control
same,T/C,"dose: 3240.0 mg/kg/injection, schedule: Q01DX001 (ip), vehicle: carboxymethylcellulose (CMC)",123 % of control
same,T/C,"dose: 3240.0 mg/kg/injection, schedule: Q01DX001 (ip), vehicle: other",191 % of control
C[N+](C)(C)CC1CCCCC1,T/C,[1],103 % of control
CCCCN(C)/N=N/c1nc[nH]c1C(=O)NN,T/C,"dose: 50.0 mg/kg/injection, schedule: Q01DX001 (ip), vehicle: carboxymethylcellulose (CMC)",104 % of control
same,T/C,"dose: 100.0 mg/kg/injection, schedule: Q01DX001 (ip), vehicle: carboxymethylcellulose (CMC)",104 % of control
same,T/C,"dose: 200.0 mg/kg/injection, schedule: Q01DX001 (ip), vehicle: carboxymethylcellulose (CMC)",101 % of control
same,T/C,"dose: 400.0 mg/kg/injection, schedule: Q01DX001 (ip), vehicle: carboxymethylcellulose (CMC)",119 % of control
COc1ccc(C(O)C(C)N)cc1 (stereo not drawn),T/C,[1],96 % of control
same,T/C,"dose: 150.0 mg/kg/injection, schedule: Q01DX001 (ip), vehicle: saline",96 % of control
CC(=O)Cc1ccc(Cl)cc1,T/C,"dose: 100.0 mg/kg/injection, schedule: Q04DX002 (ip), vehicle: saline",92 % of control
same,T/C,"dose: 200.0 mg/kg/injection, schedule: Q04DX002 (ip), vehicle: saline",95 % of control
same,T/C,"dose: 400.0 mg/kg/injection, schedule: Q04DX002 (ip), vehicle: saline",99 % of control
NC(=O)N(CCCCN(N=O)C(N)=O)N=O,T/C,"dose: 40.0 mg/kg/injection, schedule: Q01DX001 (ip), vehicle: saline with Tween-80",152 % of control
same,T/C,"dose: 60.0 mg/kg/injection, schedule: Q01DX001 (ip), vehicle: saline with Tween-80",178 % of control
same,T/C,"dose: 93.0 mg/kg/injection, schedule: Q01DX001 (ip), vehicle: saline with Tween-80",246 % of control
same,T/C,"dose: 500.0 mg/kg/injection, schedule: Q01DX001 (ip), vehicle: saline with Tween-80",90 % of control
Cc1ccc(OCCBr)cc1,T/C,[2],93 % of control
same,T/C,"dose: 100.0 mg/kg/injection, schedule: Q04DX003 (ip), vehicle: saline with Tween-80",100 % of control
same,T/C,[3],101 % of control
same,T/C,"dose: 200.0 mg/kg/injection, schedule: Q04DX003 (ip), vehicle: saline with Tween-80",107 % of control
same,T/C,"dose: 400.0 mg/kg/injection, schedule: Q04DX003 (ip), vehicle: saline with Tween-80",98 % of control
CCOC(=O)c1ccc(NC(=O)Oc2ccc(SC)cc2)cc1,T/C,[2],90 % of control
same,T/C,[3],94 % of control
same,T/C,"dose: 400.0 mg/kg/injection, schedule: Q01DX009 (ip), vehicle: Klucel (hydroxypropylcellulose) (HPC)",94 % of control
